Source: the NIST ThermoML archive (doi:10.1016/j.jct.2016.06.016)
Numbers after ± are expanded uncertainties.

Test: xn = mol fraction of the nth substance listed
Settings: 100 kPa, Liquid; for viscosity: Concentric cylinders viscometry; for mass density: Vibrating tube method

CCOC(=O)CCC(=O)OCC [diethyl butanedioate] + CCCCO
Settings	mass density, 288.15 K [kg/m3]	mass density, 293.15 K [kg/m3]	mass density, 298.15 K [kg/m3]	mass density, 303.15 K [kg/m3]	viscosity, 288.15 K [mPa·s]	viscosity, 293.15 K [mPa·s]	viscosity, 298.15 K [mPa·s]	viscosity, 303.15 K [mPa·s]
x1 = 0.1	851.32 ± 0.81	847.26 ± 0.81	843.14 ± 0.81	838.99 ± 0.81	2.665 ± 0.023	2.339 ± 0.02	2.072 ± 0.018	1.845 ± 0.016
x1 = 0.2001	884.48 ± 0.81	880.14 ± 0.81	875.78 ± 0.81	871.41 ± 0.81	2.382 ± 0.021	2.106 ± 0.019	1.877 ± 0.017	1.682 ± 0.015
x1 = 0.3	913.45 ± 0.81	908.86 ± 0.81	904.32 ± 0.81	899.78 ± 0.81	2.302 ± 0.02	2.041 ± 0.018	1.825 ± 0.017	1.64 ± 0.015
x1 = 0.3999	938.87 ± 0.81	934.12 ± 0.81	929.42 ± 0.81	924.74 ± 0.81	2.306 ± 0.021	2.045 ± 0.018	1.831 ± 0.017	1.649 ± 0.015
x1 = 0.5	961.37 ± 0.81	956.51 ± 0.81	951.69 ± 0.81	946.87 ± 0.81	2.342 ± 0.021	2.077 ± 0.019	1.861 ± 0.017	1.678 ± 0.016
x1 = 0.6001	981.44 ± 0.81	976.5 ± 0.81	971.57 ± 0.81	966.65 ± 0.81	2.405 ± 0.022	2.133 ± 0.02	1.914 ± 0.018	1.727 ± 0.016
x1 = 0.6998	999.46 ± 0.82	994.45 ± 0.82	989.44 ± 0.82	984.43 ± 0.82	2.515 ± 0.023	2.228 ± 0.021	2.003 ± 0.019	1.806 ± 0.017
x1 = 0.7999	1015.94 ± 0.82	1010.87 ± 0.82	1005.79 ± 0.82	1000.71 ± 0.82	2.692 ± 0.025	2.38 ± 0.022	2.141 ± 0.02	1.925 ± 0.018
x1 = 0.8997	1031 ± 0.83	1025.85 ± 0.83	1020.71 ± 0.83	1015.58 ± 0.83	2.934 ± 0.028	2.585 ± 0.024	2.318 ± 0.022	2.078 ± 0.02
x1 = 1	1044.83 ± 0.84	1039.63 ± 0.83	1034.44 ± 0.83	1029.25 ± 0.83	3.195 ± 0.03	2.807 ± 0.027	2.491 ± 0.024	2.229 ± 0.022
